This is an account of results in article PMC11418212, “Characterization of four structurally diverse inhibitors of SUR2-containing KATP channels” (Channels, 2024).

The structures appear in SMILES notation. “And” between values parts separate entries of the source, which are not always exact repeats. Identical values can stand only once. “Also recorded” adds a separate entry of the source.

What all share (assay type): cell-based
Experiment [1] has as its target T1, Kir6.1/SUR2B (Homo sapiens, UniProt O60706).
T1 construct: expressed in transfected cells; Kir6.1 tetracycline-inducible, SUR2B constitutive
Description: Thallium flux activation dose-response without channel pre-activation. To be noted: no channel pre-activation; doses up to 30 µM. On the procedure:
(§1) Thallium flux assays were conducted using the established methods. Stably transfected T-REx-HEK-293 cells expressing Kir6.2/SUR1 or Kir6.1/SUR2B were cultured overnight in polyamine-coated plates (black-walled, clear-bottomed; BD, Bedford, MA) at a density of 20,000 cells in 20 µl per well of cell culture media. The expression of Kir6.2/SUR1 or Kir6.1/SUR2B channels was induced by treating cells with 1 µg/ml tetracycline overnight. The following day, cells were rinsed with an assay buffer (Hanks’ Balanced Salt Solution supplied with 20 mM HEPES), loaded with the thallium-sensor dye Brilliant Thallos-AM AM (Ion Bioscience, San Marcos, TX) for 1 h, and then washed again with assay buffer to remove unincorporated dye. The cell plate was subsequently placed in a Panoptic Kinetic Imaging Plate Reader (Wavefront Bioscience, Franklin, TN) and imaged at a frequency of 1 Hz using 482/35 nm (excitation) and 536/40 nm (emission) filter sets. Kir6.1/SUR2B channels were activated with 10 µM pinacidil, whereas Kir6.1/SUR1 was activated with 30 µM VU0071063 [34]. To activate KATP channels independent of activators with ATP-depletion method, cells were treated with a cocktail of metabolic inhibitors (2.5 mM sodium cyanide and 20 mM 2-deoxy glucose) for 25 min before imagine. Control and test compounds diluted freshly from DMSO stocks into assay buffer were added to wells for four minutes before adding 0.5 mM chloride-free thallium stimulus buffer (Ion Bioscience) to initiate thallium flux through the expressed KATP channels. Thallium flux was recorded from all 384-wells for 2 min before terminating the experiment. […] Selectivity assays against other Kir channels were performed as described previously.
(§2) We therefore systematically explored this possibility in dose–response experiments against Kir6.2/SUR1 in the absence of channel pre-activation. Kir6.1/SUR2B was also evaluated for comparison.
(§3) Figure 6. Paradoxical activation of Kir6.2/SUR1. […] Fluorescence intensity at each dose was normalized to that in the absence of drug. […] (b) Activities of indicated compounds at 30 μM toward Kir6.1/SUR2B normalized to that of 30 μM pinacidil. […] (d) Activities of indicated compounds at 30 μM toward Kir6.2/SUR1 normalized to that of 30 μM VU0071063.

In experiment [2] the target is Kir6.2/SUR1 (Homo sapiens, UniProt Q09428). The description is as above. To be noted: no channel pre-activation; doses up to 30 µM. On the procedure: as §1, §2, §3
Experiment [3] deals with T2, Kir7.1 (M125R) (Homo sapiens, UniProt O60928, M125R).
T2 construct: expressed in transfected cells
T2 sequence (O60928 1-360 M125R): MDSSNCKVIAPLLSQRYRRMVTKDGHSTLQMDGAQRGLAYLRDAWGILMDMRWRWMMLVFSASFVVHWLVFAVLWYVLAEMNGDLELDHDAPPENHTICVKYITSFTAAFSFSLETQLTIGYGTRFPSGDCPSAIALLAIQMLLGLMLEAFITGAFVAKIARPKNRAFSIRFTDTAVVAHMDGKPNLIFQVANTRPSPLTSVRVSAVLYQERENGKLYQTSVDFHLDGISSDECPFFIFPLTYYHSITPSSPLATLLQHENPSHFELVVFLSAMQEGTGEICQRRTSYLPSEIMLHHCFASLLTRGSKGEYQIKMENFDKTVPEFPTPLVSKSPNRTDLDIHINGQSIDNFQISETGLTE
Description: Kir family selectivity thallium flux assay. The note with it: for IC50: thallium flux. On the procedure: as §1
(§4) To begin elucidating the binding site location of VU0212387, VU0543336, VU0605768, and VU0544086, we evaluated the activity of the inhibitors against KATP channels composed of different Kir and SUR subunit combinations expressed in HEK293 cells. Specifically, the compounds were tested against Kir6.1/SUR1, Kir6.2/SUR1, Kir6.1/SUR2A, Kir6.2/SUR2A, Kir6.1/SUR2B, and Kir6.2/SUR2B at a dose of 3 µM. […] We expanded the selectivity analysis to include 10 other members of the Kir channel family.

Experiment [4] deals with T3, Kir2.1 (Homo sapiens, UniProt P63252).
T3 construct: expressed in transfected cells
T3 sequence (P63252 1-427): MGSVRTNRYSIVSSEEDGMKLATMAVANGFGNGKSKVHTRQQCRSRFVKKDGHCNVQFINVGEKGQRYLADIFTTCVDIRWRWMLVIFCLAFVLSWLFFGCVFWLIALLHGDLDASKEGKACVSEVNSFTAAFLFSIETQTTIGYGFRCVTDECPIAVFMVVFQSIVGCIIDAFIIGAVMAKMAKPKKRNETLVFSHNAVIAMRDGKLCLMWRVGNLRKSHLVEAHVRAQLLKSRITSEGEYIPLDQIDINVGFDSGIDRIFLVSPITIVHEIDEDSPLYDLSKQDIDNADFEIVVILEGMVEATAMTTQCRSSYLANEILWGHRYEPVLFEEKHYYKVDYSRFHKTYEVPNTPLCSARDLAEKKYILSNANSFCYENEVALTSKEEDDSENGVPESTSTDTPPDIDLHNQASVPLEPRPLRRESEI
Put plainly: Kir family selectivity thallium flux assay. On the procedure: as §1, §4

In experiment [5] the target is T4, Kir4.1/5.1 (Homo sapiens, UniProt P78508+Q9NPI9).
T4 construct: expressed in transfected cells
T4 sequence (P78508 1-379): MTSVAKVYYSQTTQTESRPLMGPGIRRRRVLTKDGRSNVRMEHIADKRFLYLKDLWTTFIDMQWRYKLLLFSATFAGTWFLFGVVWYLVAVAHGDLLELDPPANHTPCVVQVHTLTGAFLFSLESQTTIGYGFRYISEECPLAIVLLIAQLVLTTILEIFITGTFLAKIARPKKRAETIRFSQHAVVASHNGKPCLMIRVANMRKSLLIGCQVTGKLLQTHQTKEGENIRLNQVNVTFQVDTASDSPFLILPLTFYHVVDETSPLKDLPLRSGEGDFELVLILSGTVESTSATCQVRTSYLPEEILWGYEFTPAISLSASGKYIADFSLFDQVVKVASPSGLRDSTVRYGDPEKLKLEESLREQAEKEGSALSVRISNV
T4 sequence (Q9NPI9 1-418): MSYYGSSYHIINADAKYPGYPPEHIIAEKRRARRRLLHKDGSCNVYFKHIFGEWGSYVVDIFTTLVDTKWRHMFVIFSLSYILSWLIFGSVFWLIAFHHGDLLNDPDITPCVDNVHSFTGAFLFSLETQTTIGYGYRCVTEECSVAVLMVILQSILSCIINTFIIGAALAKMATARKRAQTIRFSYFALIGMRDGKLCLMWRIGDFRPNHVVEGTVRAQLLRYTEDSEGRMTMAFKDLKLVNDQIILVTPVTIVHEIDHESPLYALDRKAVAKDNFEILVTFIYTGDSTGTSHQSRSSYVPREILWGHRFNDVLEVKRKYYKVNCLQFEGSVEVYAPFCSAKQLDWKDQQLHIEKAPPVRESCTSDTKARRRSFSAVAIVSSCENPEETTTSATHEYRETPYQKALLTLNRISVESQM
Description: Kir family selectivity thallium flux assay. On the procedure:
as §1, §4

Chain of Kir6.2/SUR1 (Q09428 whole entry, species assumed): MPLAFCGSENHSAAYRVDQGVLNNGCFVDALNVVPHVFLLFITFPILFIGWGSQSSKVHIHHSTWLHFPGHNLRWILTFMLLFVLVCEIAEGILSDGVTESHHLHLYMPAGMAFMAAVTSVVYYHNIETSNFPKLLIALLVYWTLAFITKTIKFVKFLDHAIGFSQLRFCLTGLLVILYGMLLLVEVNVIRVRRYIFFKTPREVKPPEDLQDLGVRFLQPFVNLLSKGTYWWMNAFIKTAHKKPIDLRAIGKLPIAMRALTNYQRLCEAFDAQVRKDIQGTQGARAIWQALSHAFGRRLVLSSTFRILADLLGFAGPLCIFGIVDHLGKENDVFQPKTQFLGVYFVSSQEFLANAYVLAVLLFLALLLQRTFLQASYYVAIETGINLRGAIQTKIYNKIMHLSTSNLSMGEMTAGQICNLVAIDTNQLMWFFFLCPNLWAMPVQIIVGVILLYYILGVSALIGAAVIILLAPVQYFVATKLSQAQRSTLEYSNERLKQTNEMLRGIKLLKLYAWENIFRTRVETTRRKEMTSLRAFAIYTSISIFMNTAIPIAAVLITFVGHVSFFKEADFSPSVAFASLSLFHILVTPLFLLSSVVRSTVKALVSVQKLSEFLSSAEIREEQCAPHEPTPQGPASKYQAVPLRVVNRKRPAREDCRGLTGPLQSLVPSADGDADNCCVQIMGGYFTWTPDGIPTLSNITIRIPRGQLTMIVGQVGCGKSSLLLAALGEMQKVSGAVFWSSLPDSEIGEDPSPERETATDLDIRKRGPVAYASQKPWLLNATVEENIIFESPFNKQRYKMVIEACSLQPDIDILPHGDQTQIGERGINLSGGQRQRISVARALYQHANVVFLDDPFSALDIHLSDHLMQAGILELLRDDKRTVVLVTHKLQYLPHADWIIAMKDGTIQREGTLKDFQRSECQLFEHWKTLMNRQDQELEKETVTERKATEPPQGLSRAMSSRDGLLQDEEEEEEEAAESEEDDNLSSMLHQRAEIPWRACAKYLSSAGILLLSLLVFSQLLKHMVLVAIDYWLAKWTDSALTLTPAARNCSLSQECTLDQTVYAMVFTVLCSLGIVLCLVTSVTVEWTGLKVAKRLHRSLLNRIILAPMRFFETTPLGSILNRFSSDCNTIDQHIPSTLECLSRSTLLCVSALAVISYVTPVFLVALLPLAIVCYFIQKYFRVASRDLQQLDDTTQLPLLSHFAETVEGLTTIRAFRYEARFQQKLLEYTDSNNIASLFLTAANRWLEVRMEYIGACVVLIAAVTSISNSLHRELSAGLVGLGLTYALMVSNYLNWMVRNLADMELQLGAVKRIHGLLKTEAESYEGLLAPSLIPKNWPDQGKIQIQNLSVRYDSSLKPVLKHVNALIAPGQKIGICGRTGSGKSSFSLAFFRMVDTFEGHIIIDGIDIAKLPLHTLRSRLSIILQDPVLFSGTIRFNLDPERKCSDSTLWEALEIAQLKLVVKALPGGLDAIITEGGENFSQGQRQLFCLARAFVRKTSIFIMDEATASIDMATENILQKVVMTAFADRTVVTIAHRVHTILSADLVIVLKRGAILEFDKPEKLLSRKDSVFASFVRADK
Chain of Kir6.2/SUR1 (Q14654 whole entry partner, species assumed): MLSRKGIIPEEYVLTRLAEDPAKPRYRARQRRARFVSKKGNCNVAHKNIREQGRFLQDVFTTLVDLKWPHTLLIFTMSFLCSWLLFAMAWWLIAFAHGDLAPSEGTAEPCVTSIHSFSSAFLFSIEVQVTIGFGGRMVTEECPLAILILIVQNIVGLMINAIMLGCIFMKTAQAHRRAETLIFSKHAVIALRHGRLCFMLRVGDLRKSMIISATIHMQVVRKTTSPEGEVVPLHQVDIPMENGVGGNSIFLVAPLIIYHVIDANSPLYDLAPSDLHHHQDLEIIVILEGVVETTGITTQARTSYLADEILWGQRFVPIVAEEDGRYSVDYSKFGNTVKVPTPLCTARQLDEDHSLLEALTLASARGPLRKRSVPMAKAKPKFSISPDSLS
T1 sequence (O60706 1-1549 isoform O60706-2, species assumed): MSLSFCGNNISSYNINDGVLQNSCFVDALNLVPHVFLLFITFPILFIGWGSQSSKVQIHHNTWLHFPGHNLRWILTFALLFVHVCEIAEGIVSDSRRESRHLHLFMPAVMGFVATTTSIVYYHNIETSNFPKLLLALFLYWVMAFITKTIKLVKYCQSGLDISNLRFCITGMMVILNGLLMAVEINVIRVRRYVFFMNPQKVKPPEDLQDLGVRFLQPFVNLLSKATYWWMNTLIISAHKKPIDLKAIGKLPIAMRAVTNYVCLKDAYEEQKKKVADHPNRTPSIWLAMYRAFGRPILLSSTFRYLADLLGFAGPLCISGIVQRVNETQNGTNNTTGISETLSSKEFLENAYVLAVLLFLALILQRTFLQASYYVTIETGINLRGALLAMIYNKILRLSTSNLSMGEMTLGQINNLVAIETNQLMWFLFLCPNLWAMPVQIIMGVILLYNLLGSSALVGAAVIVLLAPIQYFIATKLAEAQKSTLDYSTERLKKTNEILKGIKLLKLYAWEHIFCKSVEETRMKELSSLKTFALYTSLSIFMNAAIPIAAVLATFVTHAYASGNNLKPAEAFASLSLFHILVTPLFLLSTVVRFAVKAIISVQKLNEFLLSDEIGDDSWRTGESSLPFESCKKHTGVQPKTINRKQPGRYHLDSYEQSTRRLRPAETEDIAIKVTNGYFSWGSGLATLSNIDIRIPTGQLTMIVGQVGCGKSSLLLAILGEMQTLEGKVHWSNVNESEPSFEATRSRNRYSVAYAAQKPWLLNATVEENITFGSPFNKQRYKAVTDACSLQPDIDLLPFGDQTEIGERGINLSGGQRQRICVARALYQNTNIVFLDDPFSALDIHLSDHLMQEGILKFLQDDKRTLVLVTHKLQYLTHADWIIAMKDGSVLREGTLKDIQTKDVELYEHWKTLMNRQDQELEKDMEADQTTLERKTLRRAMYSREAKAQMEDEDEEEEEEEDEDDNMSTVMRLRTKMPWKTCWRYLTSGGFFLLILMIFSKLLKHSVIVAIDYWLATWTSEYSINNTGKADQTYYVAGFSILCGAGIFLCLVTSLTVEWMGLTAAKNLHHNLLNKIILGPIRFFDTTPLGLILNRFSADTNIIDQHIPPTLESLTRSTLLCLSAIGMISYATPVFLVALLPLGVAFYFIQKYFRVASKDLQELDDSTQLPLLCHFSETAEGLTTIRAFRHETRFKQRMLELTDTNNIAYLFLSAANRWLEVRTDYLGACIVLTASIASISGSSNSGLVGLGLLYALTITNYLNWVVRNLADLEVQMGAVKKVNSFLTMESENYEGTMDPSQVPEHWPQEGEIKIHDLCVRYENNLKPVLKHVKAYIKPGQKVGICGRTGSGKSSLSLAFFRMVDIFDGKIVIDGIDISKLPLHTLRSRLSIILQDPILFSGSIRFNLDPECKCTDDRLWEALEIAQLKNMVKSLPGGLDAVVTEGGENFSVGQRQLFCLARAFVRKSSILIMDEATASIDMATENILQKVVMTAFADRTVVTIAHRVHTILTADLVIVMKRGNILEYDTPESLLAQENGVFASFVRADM
T1 sequence (Q15842 whole entry partner, species assumed): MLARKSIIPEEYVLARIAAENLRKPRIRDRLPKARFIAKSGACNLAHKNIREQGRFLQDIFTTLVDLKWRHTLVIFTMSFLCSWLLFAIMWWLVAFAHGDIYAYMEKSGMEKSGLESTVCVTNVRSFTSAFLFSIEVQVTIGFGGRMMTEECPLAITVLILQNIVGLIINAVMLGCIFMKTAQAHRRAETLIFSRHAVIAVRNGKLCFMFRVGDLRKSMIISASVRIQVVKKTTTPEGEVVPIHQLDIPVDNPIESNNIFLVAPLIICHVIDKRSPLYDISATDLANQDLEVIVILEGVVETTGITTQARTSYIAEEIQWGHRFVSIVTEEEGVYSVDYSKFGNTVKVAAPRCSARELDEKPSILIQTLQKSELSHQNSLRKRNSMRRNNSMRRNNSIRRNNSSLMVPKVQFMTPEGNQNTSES

By IC50 is commonly meant the concentration needed to halve the response being measured. `O=C1c2oc3ccccc3c(=O)c2C(c2cccc(Br)c2)N1CCO` (stereo not drawn) [VU0605768, 1-(3-bromophenyl)-2-(2-hydroxyethyl)-1,2-dihydrochromeno[2,3-c]pyrrole-3,9-dione]: the “Activation of Kir6.1/SUR2B” value in experiment [1] was “failed to activate”. Further, in experiment [2], the “Activation of Kir6.2/SUR1” value is “dose-dependently activated; also recorded: induced dose-dependent Kir6.2/SUR1 activation; also recorded: activate Kir6.2/SUR1 at higher drug doses”. Besides, the IC50 in experiment [3], in experiment [4] and in experiment [5] was greater than 30 µM in each case.
For the compound `O=C(NCc1cc(-c2ccncc2)n(C2CCCC2)n1)Nc1cccs1` [VU0544086, 1-((1-cyclopentyl-5-(pyridin-4-yl)-1 H-pyrazol-3-yl)methyl)-3-(thiophen-2-yl)urea], in experiment [1], the “Activation of Kir6.1/SUR2B” value is “failed to activate”. Besides, the “Activation of Kir6.2/SUR1” value in experiment [2] was “failed to activate”. Moreover, the IC50 in experiment [3], in experiment [4] and in experiment [5] was greater than 30 µM throughout.
For orientation: inhibition means how much of the control response was suppressed. As to `c1ccc2[nH]c(CSc3ncnc4c3oc3ccccc34)nc2c1` [VU0212387, 4-(((1 H-benzo[d]imidazol-2-yl)methyl)thio)benzofuro[3,2-d]pyrimidine], in experiment [1], the “Activation of Kir6.1/SUR2B” value was “failed to activate”. Further, the “Activation of Kir6.2/SUR1” value in experiment [2] is given as “dose-dependently activated; also recorded: induced dose-dependent Kir6.2/SUR1 activation; also recorded: activate Kir6.2/SUR1 at higher drug doses”. Moreover, the inhibition at 30 µM in experiment [3] (observed at 30 µM, read-out: Percent maximal inhibition of Kir7.1 (M125R)) stood at 69%. Besides, the IC50 in experiment [3] was 12 µM and 12.3 µM; in experiment [4], greater than 30 µM; in experiment [5] it was greater than 30 µM.
Regarding `O=C(NCC(O)(c1ccccc1)C(F)(F)F)c1ccc(OC(F)(F)F)cc1` (stereo not drawn) [VU0543336, N-(3,3,3-trifluoro-2-hydroxy-2-phenylpropyl)-4-(trifluoromethoxy)benzamide], in experiment [1], the “Activation of Kir6.1/SUR2B” value is “failed to activate”. Moreover, in experiment [2], the “Activation of Kir6.2/SUR1” value is on record as “dose-dependently activated; also recorded: induced dose-dependent Kir6.2/SUR1 activation; also recorded: activate Kir6.2/SUR1 at higher drug doses”. Besides, the IC50 in experiment [3], in experiment [4] and in experiment [5] was greater than 30 µM in each case.
